Results from patent US20250359548A1, “METHODS OF IMPROVING STRESS TOLERANCE, GROWTH AND YIELD IN PLANTS” (Valent BioSciences LLC, priority 2020, published 2025).

Columns and labels:
Format in all cases: in vivo
Apogee wheat [1] = experiment: Example 1: grain yield in Apogee wheat under water stress (greenhouse pots, spray at Feekes 11.0); conditions: drought stress
Method: 42 pots of Apogee wheat were grown in a greenhouse under ideal growing conditions. Specifically, wheat was planted in ProMix® growth media and grown for about-seven weeks in a growth cabinet at 24/18° C. day/night temperature under a 16/8 hour light/dark photoperiod. Next, spray applications of 0.025% v/v Latron B-1956® in water, 30 ppm ABA, 30 ppm 6BA, 10 ppm CPPU, a mixture of 30 ppm ABA and 30 ppm 6BA and a mixture of 30 ppm ABA and 10 ppm CPPU (n=7) were made using a tank sprayer at Feekes stage 11.0. Plants were then grown with no additional water for next 3-5 days until drought stress conditions and water-deficit stress-related phenotypes were apparent. Specifically, drought stress conditions are determined as when pots have lost 60-70% of stored soil water, as determined by determined gravimetrically by weighing pots, through evapotranspiration and water-deficit stress-related phenotypes include wilting and leaf-rolling. Plants were re-watered to bring soil moisture to saturation and subsequently grown under optimal conditions until physiological maturity. Plants were then destructively harvested and measured for spike weight, grain weight, yield per spike and harvest index. Harvest index is calculated by dividing pounds of grain by the total pounds of above ground biomass.
(§1) To determine if the mixtures provided unexpected results, the observed combined efficacy (“OCE”) was divided by the expected combined efficacy (“ECE”) to give an OCE/ECE ratio wherein the expected ECE is calculated by a variation of the Abbott method:
(§2) [formula] • wherein ECE is the expected combined efficacy and in which X is the control efficacy and A and B are the efficacy provided by the single active ingredients. If the ratio between the OCE of the mixture and the ECE of the mixture is greater than 1, then greater than expected interactions are present in the mixture. (Gisi, The American Phytopathological Society, 86:11, 1273-1279, 1996).

Apogee wheat [2] = experiment: Example 3: grain yield in Apogee wheat under well-watered conditions, two sprays
Method: as §1, §2
32 pots of Apogee wheat were grown in a greenhouse under ideal growing conditions. Specifically, wheat was planted in ProMix® growth media and grown for about seven weeks in a growth cabinet at 24/18° C. day/night temperature under a 16/8 hour light/dark photoperiod. Next, spray applications of 0.025% v/v Latron B-1956® in water, 30 ppm ABA, 10 ppm CPPU, and a mixture of 30 ppm ABA and 10 ppm CPPU (n=8) were made using a tank sprayer at Feekes stage 11.0. A second chemical spray application was made seven days after first spray. Plants were then grown under ideal conditions for an additional 5-6 weeks until they reached physiological maturity. Plants were then destructively harvested and measured for spike weight, grain yield, yield per spike and total above ground biomass.

Apogee wheat [3] = experiment: Example 4: grain yield in Apogee wheat under water stress, dose combinations; conditions: drought stress
Method: as §1, §2
72 pots of Apogee wheat were grown in a greenhouse under ideal growing conditions. Specifically, wheat was planted in ProMix® growth media and grown for about seven weeks in a growth cabinet at 24/18° C. day/night temperature under a 16/8 hour light/dark photoperiod. Next, spray applications of 0.025% v/v Latron B-1956® in water, 10 ppm ABA, 30 ppm ABA, 5 ppm CPPU, 10 ppm CPPU, a mixture of 10 ppm ABA and 5 ppm CPPU, a mixture of 30 ppm ABA and 5 ppm CPPU, a mixture of 10 ppm ABA and 10 ppm CPPU and a mixture of 30 ppm ABA and 10 ppm CPPU (n=8) were made using a tank sprayer at Feekes stage 11.0. Plants were then grown with no additional water for next 3-5 until drought stress conditions and water-deficit stress related phenotype was apparent. Plants were re-watered to bring soil moisture to saturation and grown under optimal conditions until physiological maturity. Plants were then destructively harvested and measured for spike weight, grain yield, yield per spike and total above ground biomass.

rice [4] = experiment: Example 5: grain yield in rice (spray at R6)
Method: as §1, §2
32 pots of rice were grown in a greenhouse under ideal growing conditions. Specifically, rice was planted in growth media comprising sand and Pro-Mix® BX and grown for about 3-4 weeks in a growth cabinet at 24/18° C. day/night temperature under a 18/6 hour light/dark photoperiod. Next, spray applications of 0.025% v/v Latron B-1956® in water, 30 ppm ABA, 10 ppm CPPU, and a mixture of 30 ppm ABA and 10 ppm CPPU (n=8) were made using a tank sprayer at early grain filling stage (growth stage R6). Plants were then grown under ideal conditions for an additional 5-7 weeks. Plants were then destructively harvested and measured for yield of top six panicles, yield from other panicles (not top six panicles), yield of all panicles, yield per panicle and yield per top six panicles.

Apogee wheat [5] = experiment: Example 2: grain yield in Apogee wheat under water stress; conditions: 30 ppm spray; drought stress
Method: as §1, §2
Thirty-two pots of Apogee wheat were grown in a greenhouse under ideal growing conditions. Specifically, wheat was planted in ProMix® growth media and grown for about seven weeks in a growth cabinet at 24/18° C. day/night temperature under a 16/8 hour light/dark photoperiod. Next, spray applications of 0.025% v/v Latron B-1956® in water, 30 ppm ABA, 30 ppm 6BA, and a mixture of 30 ppm ABA and 30 ppm 6BA (n=8) were made using a tank sprayer at Feekes stage 11.0. Plants were then grown with no additional water for the next 3-5 days until drought stress conditions and water-deficit stress-related phenotypes were apparent. Plants were re-watered to bring soil moisture to saturation and grown under optimal conditions until physiological maturity. Plants were then destructively harvested and measured for shoot weight, spike weight, grain yield, yield per spike and total above ground biomass.

rice [6] = experiment: Example 6: grain yield in rice (spray at R5 to R6); conditions: 30 ppm spray at R5 to R6
Method: as §1, §2
48 pots of rice were grown in a greenhouse under ideal growing conditions. Specifically, rice was planted in growth media comprising sand and Pro-Mix® BX and grown for about 3-4 weeks in a growth cabinet at 24/18° C. day/night temperature under a 18/6 hour light/dark photoperiod. Next, spray applications of 0.025% v/v Latron B-1956® in water, 30 ppm ABA, 30 ppm 6BA, 45 ppm 6BA, a mixture of 30 ppm ABA and 30 ppm 6BA, and a mixture of 30 ppm ABA and 45 ppm 6BA (n=8) were made using a tank sprayer at early grain filling stage (growth stage R5 to R6). Plants were then grown under ideal conditions for an additional 5-7 weeks. Plants were then destructively harvested and measured for yield of top six panicles, yield from other panicles (not top six panicles), yield of all panicles, yield per panicle and yield per top six panicles.

Corn = experiment: Example 7: grain yield in field corn, Seymour IL 2020
Method: (§3) Corn was grown in the field in Seymour, IL in 2020. Spray applications of water, 2 g/HA ABA, 6 g/HA ABA and a mixture of 2 g/HA ABA and 2 g/HA 6BA (n=8) were made using a tank sprayer at the blister to milk stage (growth stage R2-R3). Plants were then grown until mature. Plants were then destructively harvested and measured for grain yield.

Soybean = experiment: Example 8: grain yield in field soybean, Seymour IL 2020
Method: as §3, with “Soybean” for “Corn”, “beginning of seeding” for “blister to milk stage”, “R4 to R5).” for “R2-R3).”

Barley = experiment: Example 9: grain yield in field barley, Argentina 2020
Method: Barley was grown in the field in Pieres, Buenos Aires Province, Argentina from Jun. 15 to Dec. 30, 2020. 2 g/HA ABA, 6 g/HA ABA and mixtures of 2 g/HA ABA and 2 g/HA 6BA and 4 g/HA ABA and 2 g/HA 6BA (n=8) were made using a tank sprayer at the beginning of milk grains (growth stage Zadoks 7.2). Plants were then grown until mature. Plants were then destructively harvested and measured for grain yield.

How did the “Grain Yield” value (Apogee wheat [1]; 10 ppm spray) turn out when `O=C(Nc1ccccc1)Nc1ccnc(Cl)c1` [CPPU, n-(2-chloro-4-pyridyl)-n′-phenylurea] was run?
Its value is 9.69 grams.

What about the “Harvest Index” value (Apogee wheat [1]; 10 ppm spray) of the same compound?
The value was 0.56.

And the “Spike Weight” value (Apogee wheat [1]; 10 ppm spray)?
Its value is 12.99 grams.

What about the Yield/Spike (Apogee wheat [1]; 10 ppm spray) of the same compound?
Its Yield/Spike is 1.34 grams.

And the “Grain Yield” value (Apogee wheat [2]; 10 ppm)?
The value was 8.28 grams.

And the “Spike Weight” value (Apogee wheat [2]; 10 ppm)?
The value was 11.86 grams.

What about the “Total Above Ground Biomass” value (Apogee wheat [2]; 10 ppm) of the same compound?
Its value is 15.98 grams.

What about the Yield/Spike (Apogee wheat [2]; 10 ppm) of the same compound?
Its Yield/Spike is 0.95 grams.

And the “Grain Yield” value (Apogee wheat [3]; 5 ppm spray)?
The value was 6.20 grams.

What about the “Spike Weight” value (Apogee wheat [3]; 5 ppm spray) of the same compound?
Its value is 8.57 grams.

And the “Total Above Ground Biomass” value (Apogee wheat [3]; 5 ppm spray)?
The value was 11.34 grams.

What about the Yield/Spike (Apogee wheat [3]; 5 ppm spray) of the same compound?
Its Yield/Spike is 0.98 grams.

And the “Grain Yield” value (Apogee wheat [3]; 10 ppm spray)?
The value was 6.32 grams.

What about the “Spike Weight” value (Apogee wheat [3]; 10 ppm spray) of the same compound?
Its value is 8.12 grams.

And the “Total Above Ground Biomass” value (Apogee wheat [3]; 10 ppm spray)?
The value was 10.94 grams.

And the Yield/Spike (Apogee wheat [3]; 10 ppm spray)?
The Yield/Spike was 1.00 grams.

And the “Yield of All” value (rice [4]; 10 ppm spray at R6)?
Its value is 26.33 grams.

What about the “Yield of Others” value (rice [4]; 10 ppm spray at R6) of the same compound?
The value was 11.16 grams.

And the “Yield of Top 6” value (rice [4]; 10 ppm spray at R6)?
The value was 15.17 grams.

And the “Yield per Panicle” value (rice [4]; 10 ppm spray at R6)?
The value was 2.22 grams.

And the “Yield per Top 6” value (rice [4]; 10 ppm spray at R6)?
The value was 2.53 grams.

With (S)-abscisic acid [ABA] as the compound, how does the “Grain Yield” value (Apogee wheat [1]; 30 ppm spray) read?
Its value is 10.24 grams.

And the “Harvest Index” value (Apogee wheat [1]; 30 ppm spray)?
The value was 0.55.

What about the “Spike Weight” value (Apogee wheat [1]; 30 ppm spray) of the same compound?
The value was 14.06 grams.

What about the Yield/Spike (Apogee wheat [1]; 30 ppm spray) of the same compound?
The Yield/Spike was 1.40 grams.

What about the “Grain Yield” value (Apogee wheat [5]) of the same compound?
The value was 12.12 grams.

What about the “Shoot Weight” value (Apogee wheat [5]) of the same compound?
The value was 5.04 grams.

And the “Spike Weight” value (Apogee wheat [5])?
The value was 15.66 grams.

And the “Total Above Ground Biomass” value (Apogee wheat [5])?
Its value is 20.70 grams.

And the Yield/Spike (Apogee wheat [5])?
Its Yield/Spike is 1.33 grams.

And the “Grain Yield” value (Apogee wheat [2]; 30 ppm)?
The value was 8.49 grams.

What about the “Spike Weight” value (Apogee wheat [2]; 30 ppm) of the same compound?
The value was 11.60 grams.

And the “Total Above Ground Biomass” value (Apogee wheat [2]; 30 ppm)?
The value was 15.38 grams.

And the Yield/Spike (Apogee wheat [2]; 30 ppm)?
Its Yield/Spike is 1.04 grams.

What about the “Grain Yield” value (Apogee wheat [3]; 10 ppm spray) of the same compound?
Its value is 6.95 grams.

And the “Spike Weight” value (Apogee wheat [3]; 10 ppm spray)?
Its value is 9.22 grams.

What about the “Total Above Ground Biomass” value (Apogee wheat [3]; 10 ppm spray) of the same compound?
The value was 12.11 grams.

What about the Yield/Spike (Apogee wheat [3]; 10 ppm spray) of the same compound?
Its Yield/Spike is 1.08 grams.

What about the “Grain Yield” value (Apogee wheat [3]; 30 ppm spray) of the same compound?
The value was 6.72 grams.

And the “Spike Weight” value (Apogee wheat [3]; 30 ppm spray)?
Its value is 8.90 grams.

And the “Total Above Ground Biomass” value (Apogee wheat [3]; 30 ppm spray)?
Its value is 11.47 grams.

What about the Yield/Spike (Apogee wheat [3]; 30 ppm spray) of the same compound?
The Yield/Spike was 1.06 grams.

And the “Yield of All” value (rice [4]; 30 ppm spray at R6)?
Its value is 28.47 grams.

And the “Yield of Others” value (rice [4]; 30 ppm spray at R6)?
Its value is 12.72 grams.

And the “Yield of Top 6” value (rice [4]; 30 ppm spray at R6)?
The value was 15.75 grams.

And the “Yield per Panicle” value (rice [4]; 30 ppm spray at R6)?
The value was 2.34 grams.

And the “Yield per Top 6” value (rice [4]; 30 ppm spray at R6)?
Its value is 2.63 grams.

And the “Yield of All” value (rice [6])?
Its value is 23.70 grams.

And the “Yield of Others” value (rice [6])?
The value was 5.22 grams.

And the “Yield of Top 6” value (rice [6])?
The value was 19.14 grams.

And the “Yield per Panicle” value (rice [6])?
The value was 2.95 grams.

And the “Yield per Top 6” value (rice [6])?
The value was 3.19 grams.

What about the “Grain Yield” value (Corn; 2 g/HA spray at R2-R3) of the same compound?
The value was 225 bushels/acre.

And the “Grain Yield” value (Corn; 6 g/HA spray at R2-R3)?
The value was 234 bushels/acre.

What about the “Grain Yield” value (Soybean; 2 g/HA spray at R4 to R5) of the same compound?
The value was 96.57 bushels/acre.

What about the “Grain Yield” value (Soybean; 6 g/HA spray at R4 to R5) of the same compound?
The value was 93.80 bushels/acre.

And the “Grain Yield” value (Barley; 2 g/HA spray at Zadoks 7.2)?
The value was 5319.

What about the “Grain Yield” value (Barley; 6 g/HA spray at Zadoks 7.2) of the same compound?
The value was 5114.
